# According to ChEMBL document CHEMBL6096730, “Unlocking the Therapeutic Potential of Natural Products for Alzheimer's Disease” (J Med Chem, 2025):
# Assays:
# [1] = molecular target: Amyloid-beta precursor protein (Homo sapiens) (UniProt P05067); experiment: Inhibition of self-mediated Amyloid beta (1 to 42) (unknown origin) aggregation at 20 uM measured every 5 mins by ThT fluorescence based assay relative to control
# Acetylcholinesterase = Acetylcholinesterase (Homo sapiens, UniProt P22303); experiment: Inhibition of human erythrocyte acetylcholinesterase using acetylthiocholine as substrate by Ellman's method
# Chain of Acetylcholinesterase (P22303 whole entry): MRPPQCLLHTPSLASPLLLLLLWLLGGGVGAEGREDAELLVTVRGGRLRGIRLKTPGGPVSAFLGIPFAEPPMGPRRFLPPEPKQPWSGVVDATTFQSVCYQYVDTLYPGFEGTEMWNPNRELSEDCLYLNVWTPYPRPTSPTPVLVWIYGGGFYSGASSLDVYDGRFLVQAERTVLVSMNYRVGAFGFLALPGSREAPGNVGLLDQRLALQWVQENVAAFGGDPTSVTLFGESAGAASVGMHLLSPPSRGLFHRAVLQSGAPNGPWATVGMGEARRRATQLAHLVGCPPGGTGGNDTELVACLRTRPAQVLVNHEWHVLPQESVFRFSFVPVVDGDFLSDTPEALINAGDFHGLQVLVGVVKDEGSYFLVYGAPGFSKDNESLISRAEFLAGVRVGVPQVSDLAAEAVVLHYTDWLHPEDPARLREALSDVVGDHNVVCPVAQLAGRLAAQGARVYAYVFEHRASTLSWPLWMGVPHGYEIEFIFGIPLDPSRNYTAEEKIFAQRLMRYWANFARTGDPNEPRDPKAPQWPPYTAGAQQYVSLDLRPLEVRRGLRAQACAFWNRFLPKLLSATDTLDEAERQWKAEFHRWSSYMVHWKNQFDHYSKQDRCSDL
# Chain of Amyloid-beta precursor protein (Homo sapiens) (P05067 whole entry): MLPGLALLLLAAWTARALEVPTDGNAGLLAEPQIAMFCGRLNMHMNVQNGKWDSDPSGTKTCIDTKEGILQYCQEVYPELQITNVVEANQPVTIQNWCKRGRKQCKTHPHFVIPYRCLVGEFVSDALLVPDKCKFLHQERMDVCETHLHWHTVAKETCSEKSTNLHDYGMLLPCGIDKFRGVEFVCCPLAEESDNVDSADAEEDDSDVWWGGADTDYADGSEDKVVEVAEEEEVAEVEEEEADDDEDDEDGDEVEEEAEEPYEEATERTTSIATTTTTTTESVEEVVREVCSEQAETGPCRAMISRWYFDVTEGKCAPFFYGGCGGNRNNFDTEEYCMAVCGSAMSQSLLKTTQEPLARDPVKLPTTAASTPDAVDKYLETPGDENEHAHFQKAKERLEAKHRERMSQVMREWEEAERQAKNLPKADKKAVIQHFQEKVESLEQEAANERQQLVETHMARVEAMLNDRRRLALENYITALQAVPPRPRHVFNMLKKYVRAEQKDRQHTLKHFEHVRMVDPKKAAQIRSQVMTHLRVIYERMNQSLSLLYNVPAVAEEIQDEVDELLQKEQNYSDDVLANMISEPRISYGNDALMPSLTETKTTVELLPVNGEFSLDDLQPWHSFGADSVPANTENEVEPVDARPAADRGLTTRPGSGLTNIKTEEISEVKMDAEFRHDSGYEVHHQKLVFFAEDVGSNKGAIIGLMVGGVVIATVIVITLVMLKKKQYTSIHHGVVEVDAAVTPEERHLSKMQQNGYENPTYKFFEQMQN
Structure (SMILES),inhibition [1],IC50 (Acetylcholinesterase)
COc1cc([C@H](O)[C@H](C)Oc2ccc(CCCO)cc2O)ccc1O,81%,
COc1ccc([C@H]2O[C@@H](O)[C@H]3[C@@H]2C(=O)O[C@@H]3c2cc(OC)c3c(c2)OCO3)cc1OC,,300 nM
